Results reported in patent EP3623369A1, “NOVEL MORPHOLINYL AMINE COMPOUNDS FOR THE TREATMENT OF AUTOIMMUNE DISEASE” (F. Hoffmann-La Roche AG, priority 2018, dated 2020).

Molecular target: T1, hTLR9 (Homo sapiens, UniProt Q9NR96)
T1 sequence (Q9NR96 26-1032): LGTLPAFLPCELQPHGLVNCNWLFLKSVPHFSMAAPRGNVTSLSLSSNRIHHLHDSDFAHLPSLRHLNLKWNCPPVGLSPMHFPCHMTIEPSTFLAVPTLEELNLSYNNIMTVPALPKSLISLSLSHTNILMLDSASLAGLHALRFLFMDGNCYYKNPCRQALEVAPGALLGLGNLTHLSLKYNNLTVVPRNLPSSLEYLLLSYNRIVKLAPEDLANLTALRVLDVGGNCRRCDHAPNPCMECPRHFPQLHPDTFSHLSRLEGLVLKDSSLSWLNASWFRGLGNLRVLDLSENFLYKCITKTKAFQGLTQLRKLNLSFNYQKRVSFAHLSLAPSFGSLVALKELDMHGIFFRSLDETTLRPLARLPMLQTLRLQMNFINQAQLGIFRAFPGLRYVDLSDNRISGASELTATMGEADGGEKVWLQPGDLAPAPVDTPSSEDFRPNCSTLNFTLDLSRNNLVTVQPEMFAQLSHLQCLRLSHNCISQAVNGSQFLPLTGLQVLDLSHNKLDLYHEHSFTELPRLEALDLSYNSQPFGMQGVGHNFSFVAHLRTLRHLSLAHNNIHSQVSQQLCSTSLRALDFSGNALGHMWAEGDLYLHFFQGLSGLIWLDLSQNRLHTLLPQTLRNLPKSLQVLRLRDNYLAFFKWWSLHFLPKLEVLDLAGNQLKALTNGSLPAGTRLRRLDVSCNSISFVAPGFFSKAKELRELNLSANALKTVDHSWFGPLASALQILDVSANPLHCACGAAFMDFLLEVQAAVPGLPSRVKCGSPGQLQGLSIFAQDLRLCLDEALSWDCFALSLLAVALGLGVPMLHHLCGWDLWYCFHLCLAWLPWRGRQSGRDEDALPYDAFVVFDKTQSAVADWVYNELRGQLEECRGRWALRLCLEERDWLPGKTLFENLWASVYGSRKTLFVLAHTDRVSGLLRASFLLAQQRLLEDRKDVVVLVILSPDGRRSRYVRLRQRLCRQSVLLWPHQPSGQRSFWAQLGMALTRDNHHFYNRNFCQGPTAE
Assay: HEK293-Blue-hTLR-9 cells assay (SEAP reporter, ODN2006 stimulation)
Type: cell-based
Details: HEK293-Blue-hTLR9 cells, ODN2006, 20 hrs; 0.032 is the lowest tested concentration; read-out: HEK/hTLR9 IC50
Method: The following tests were carried out in order to determine the activity of the compounds of formula (I) or (Ia) in HEK293-Blue-hTLR-7/8/9 cells assay.
HEK293-Blue-hTLR-9 cells assay:
A stable HEK293-Blue-hTLR-9 cell line was purchased from InvivoGen (Cat.#: hkb-htlr9, San Diego, California, USA). These cells were originally designed for studying the stimulation of human TLR9 by monitoring the activation of NF-κB. A SEAP (secreted embryonic alkaline phosphatase) reporter gene was placed under the control of the IFN-β minimal promoter fused to five NF-κB and AP-1-binding sites. The SEAP was induced by activating NF-κB and AP-1 via stimulating HEK-Blue hTLR9 cells with TLR9 ligands. Therefore the reporter expression was declined by TLR9 antagonist under the stimulation of a ligand, such as ODN2006 (Cat.#: tlrl-2006-1, Invivogen, San Diego, California, USA), for incubation of 20 hrs. The cell culture supernatant SEAP reporter activity was determined using QUANTI-Blue™ kit (Cat.#: rep-qb1, Invivogen, San Diego, California, USA) at a wavelength of 640 nm, a detection medium that turns purple or blue in the presence of alkaline phosphatase.
HEK293-Blue-hTLR9 cells were incubated at a density of 250,000∼450,000 cells/mL in a volume of 170 µL in a 96-well plate in Dulbecco's Modified Eagle's medium (DMEM) containing 4.5 g/L glucose, 50 U/mL penicillin, […], […], 2 mM L-glutamine, 10% (v/v) heat-inactivated fetal bovine serum with addition of 20 µL test compound in a serial dilution in the presence of final DMSO at 1% and 10 µL of 20uM ODN2006 in above DMEM, perform incubation under 37 °C in a CO2 incubator for 20 hrs. Then 20 µL of the supernatant from each well was incubated with 180 µL Quanti-blue substrate solution at 37 °C for 2 hrs and the absorbance was read at 620∼655 nm using a spectrophotometer. The signalling pathway that TLR9 activation leads to downstream NF-κB activation has been widely accepted, and therefore similar reporter assay was modified for evaluating TLR9 antagonist.

Compound: C[C@@H]1CN(c2ccc(C#N)n3nccc23)C[C@H](CN2CCc3cc(N4CCNCC4)ccc3C2)O1 [Example 10, 4-[(2R,6S)-2-methyl-6-[(6-piperazin-1-yl-3,4-dihydro-1H-isoquinolin-2-yl)methyl]morpholin-4-yl]pyrazolo[1,5-a]pyridine-7-carbonitrile]
- IC50: 67 nM

Compound: C[C@@H]1CN(c2ccc(C#N)c3nccnc23)C[C@H](CN2Cc3ccc(N4CCN[C@@H](C)C4)cc3C2)O1 [Example 66, 8-[(2R,6S)-2-methyl-6-[[5-[(3S)-3-methylpiperazin-1-yl]isoindolin-2-yl]methyl]morpholin-4-yl]quinoxaline-5-carbonitrile]
- IC50: 83 nM

Compound: C[C@@H]1CN(c2ccc(C#N)c3nccnc23)C[C@H](CN2CCc3cc(N4CCNCC4)ccc3C2)O1 [Example 13, 8-[(2R,6S)-2-methyl-6-[(6-piperazin-1-yl-3,4-dihydro-1H-isoquinolin-2-yl)methyl]morpholin-4-yl]quinoxaline-5-carbonitrile]
- IC50: 54 nM

Compound: C[C@@H]1CN(c2ccc(C#N)c3ncccc23)C[C@H](CN2Cc3ccc(N4C5CCC4CNC5)cc3C2)O1 [Example 43, 5-[(2S,6R)-2-[[5-(3,8-diazabicyclo[3.2.1]octan-8-yl)isoindolin-2-yl]methyl]-6-methyl-morpholin-4-yl]quinoline-8-carbonitrile]
- IC50: 88 nM

Compound: C[C@@H]1CN(c2ccc(C#N)c3nccnc23)C[C@H](CN2Cc3ccc(N4CC5COCC(C4)N5)cc3C2)O1 [Example 49, 8-[(2R,6S)-2-methyl-6-[[5-(3-oxa-7,9-diazabicyclo[3.3.1]nonan-7-yl)isoindolin-2-yl]methyl]morpholin-4-yl]quinoxaline-5-carbonitrile]
- IC50: 164 nM

Compound: C[C@@H]1CN(c2ccc(C#N)n3ncc(F)c23)C[C@H](CN2CCc3cc(N4CCNCC4)ccc3C2)O1 [Example 14, 3-fluoro-4-[(2R,6S)-2-methyl-6-[(6-piperazin-1-yl-3,4-dihydro-1H-isoquinolin-2-yl)methyl]morpholin-4-yl]pyrazolo[1,5-a]pyridine-7-carbonitrile]
- IC50: 117 nM

Compound: CC1c2ccc(N3CCNCC3)cc2CN1C[C@H]1CN(c2ccc(C#N)c3ncccc23)C[C@@H](C)O1 (stereo partly drawn) [Example 48, 5-[(2R,6S)-2-methyl-6-[(1-methyl-5-piperazin-1-yl-isoindolin-2-yl)methyl]morpholin-4-yl]quinoline-8-carbonitrile]
- IC50: 105 nM

Compound: C[C@@H]1CN(c2ccc(C#N)c3ncccc23)C[C@H](CN2Cc3ccc(N4CCNCC4CO)cc3C2)O1 (stereo partly drawn) [Example 73, 5-[(2S,6R)-2-[[5-[2-(hydroxymethyl)piperazin-1-yl]isoindolin-2-yl]methyl]-6-methyl-morpholin-4-yl]quinoline-8-carbonitrile]
- IC50: 60 nM

Compound: C[C@@H]1CN(c2ccc(C#N)c3ncccc23)C[C@H](CN2Cc3ccccc3C2)O1 [Example R3, 5-[(2S,6R)-2-(isoindolin-2-ylmethyl)-6-methyl-morpholin-4-yl]quinoline-8-carbonitrile, reference compound]
- IC50: 5540 nM

Compound: C[C@@H]1CN(c2ccc(C#N)c3ncccc23)C[C@H](CN2Cc3ccc(N4CC5COCC(C4)N5)cc3C2)O1 [Example 72, 5-[(2R,6S)-2-methyl-6-[[5-(3-oxa-7,9-diazabicyclo[3.3.1]nonan-7-yl)isoindolin-2-yl]methyl]morpholin-4-yl]quinoline-8-carbonitrile]
- IC50: 66 nM

Compound: CCOC(=O)C1CNCCN1c1ccc2c(c1)CN(C[C@H]1CN(c3ccc(C#N)c4ncccc34)C[C@@H](C)O1)C2 (stereo partly drawn) [Example 50, Ethyl 1-[2-[[(2S,6R)-4-(8-cyano-5-quinolyl)-6-methyl-morpholin-2-yl]methyl]isoindolin-5-yl] piperazine-2-carboxylate]
- IC50: 259 nM

Compound: C[C@@H]1CN(c2ccc(C#N)c3ncsc23)C[C@H](CN2Cc3ccc(N4CCNCC4)cc3C2)O1 [Example 23, 7-[(2R,6S)-2-methyl-6-[(5-piperazin-1-ylisoindolin-2-yl)methyl]morpholin-4-yl]-1,3-benzothiazole-4-carbonitrile]
- IC50: 75 nM

Compound: C[C@@H]1CN(c2ccc3c(c2)CN(C[C@H]2CN(c4ccc(C#N)c5nccnc45)C[C@@H](C)O2)C3)CCN1 [Example 65, 8-[(2R,6S)-2-methyl-6-[[5-[(3R)-3-methylpiperazin-1-yl]isoindolin-2-yl]methyl]morpholin-4-yl] quinoxaline-5-carbonitrile]
- IC50: 59 nM

Compound: C[C@@H]1CN(c2ccc(C#N)c3nccnc23)C[C@H](CN2Cc3cc(N4CCNCC4)cnc3C2)O1 [Example 30, 8-[(2R,6S)-2-methyl-6-[(3-piperazin-1-yl-5,7-dihydropyrrolo[3,4-b]pyridin-6-yl)methyl]morpholin-4-yl]quinoxaline-5-carbonitrile]
- IC50: 136 nM

Compound: C[C@@H]1CN(c2ccc(C#N)n3nccc23)C[C@H](CN2CCc3cc(N4CCN(C)CC4)ccc3C2)O1 [Example 15, 4-[(2R,6S)-2-methyl-6-[[6-(4-methylpiperazin-1-yl)-3,4-dihydro-1H-isoquinolin-2-yl]methyl]morpholin-4-yl]pyrazolo[1,5-a]pyridine-7-carbonitrile]
- IC50: 46 nM

Compound: C[C@@H]1CN(c2ccc(C#N)n3nccc23)C[C@H](CN2Cc3ccncc3C2)O1 [Example R2, 4-[(2S,6R)-2-(1,3-dihydropyrrolo[3,4-c]pyridin-2-ylmethy1)-6-methyl-morpholin-4-yl]pyrazolo[1,5-a]pyridine-7-carbonitrile, reference compound]
- IC50: 47000 nM

Compound: C[C@@H]1CN(c2ccc(C#N)c3ncccc23)C[C@H](CN2Cc3ccc(N4CCNCC4)cc3C2)O1 [Example 21, 5-[(2R,6S)-2-methyl-6-[(5-piperazin-1-ylisoindolin-2-yl)methyl]morpholin-4-yl]quinoline-8-carbonitrile]
- IC50: 55 nM

Compound: C[C@@H]1CN(c2ccc(C#N)n3nccc23)C[C@H](CN2CCc3cnccc3C2)O1 [Example R1, 4-[(2S,6R)-2-(3,4-dihydro-1H-2,6-naphthyridin-2-ylmethyl)-6-methyl-morpholin-4-yl]pyrazolo[1,5-a]pyridine-7-carbonitrile, reference compound]
- IC50: 50600 nM

Compound: C[C@@H]1CN(c2ccc(C#N)c3nccnc23)C[C@H](CN2Cc3ccc(N4C5CCC4CNC5)cc3C2)O1 [Example 41, 8-[(2S,6R)-2-[[5-(3,8-diazabicyclo[3.2.1]octan-8-yl)isoindolin-2-yl]methyl]-6-methyl-morpholin-4-yl]quinoxaline-5-carbonitrile]
- IC50: 227 nM

Compound: C[C@@H]1CN(c2ccc(C#N)n3nccc23)C[C@H](CN2Cc3ccc(N4CCNCC4)cc3C2)O1 [Example 4, 4-[(2R,6S)-2-methyl-6-[(5-piperazin-1-ylisoindolin-2-yl)methyl]morpholin-4-yl]pyrazolo[1,5-a]pyridine-7-carbonitrile]
- IC50: 55 nM

Compound: C[C@@H]1CN(c2ccc(C#N)n3nccc23)C[C@H](CN2Cc3ccc(N4CCN(C)CC4)cc3C2)O1 [Example 17, 4-[(2R,6S)-2-methyl-6-[[5-(4-methylpiperazin-1-yl)isoindolin-2-yl]methyl]morpholin-4-yl]pyrazolo[1,5-a]pyridine-7-carbonitrile]
- IC50: 48 nM
